Test [1] deals with influenza NAs.
Test [2] relates to NAs from both IAVs and IBVs.
Experimental: Enzyme-linked immunosorbent assays (ELISA). These assays were carried out in duplicates in 384-well NeutrAvidin-coated plates. The wells were washed with 3×80 μL of washing buffer (1× PBS buffer with 0.05% tween-20) and then were incubated with biotinylated glycans (10 μM, 20 μL) at 4° C. for overnight. Then the wells were washed with 3×80 μL of washing buffer and blocked with 60 μL of blocking buffer (1× PBS buffer with 0.1% BSA). The wells were then washed with 3×80 μL of washing buffer, and NA (10 μg/mL, 20 μL) was added to each well. The samples were incubated at 4° C. for 30 minutes. The wells were then washed with 3×80 μL of washing buffer, and HRP-conjugated anti-His or anti-Strep antibodies (0.1 μg/mL or with proper dilution using 1× PBS buffer with 0.1% BSA, 20 μL) were added. The samples were incubated at 4° C. for 30 minutes.
The subject of test [3] is human, bacterial, and influenza sialidases. Description: High-throughput substrate specificity assay with sialyl GalβpNPs (A405 nm). The test is classed as biochemical, bacteria, influenza A and B viruses.
Test [4] has as its target N2-Dar21 (IAV neuraminidase) (Influenza A virus, UniProt A0A193ACB1). Description: Fluorescence-based inhibition assay (substrate Neu5Acα2-3GalβMU, β-galactosidase coupled). The note with it: read-out: percentage inhibition against N2-Dar21. The test is classed as biochemical, influenza A virus A/Darwin/9/2021 (H3N2).
In test [5] the target is T1, SpNanA (sialidase) (Streptococcus pneumoniae, UniProt P62575).
T1 construct: made in house
The test is described as above. The class given is biochemical. The note with it: read-out: percent inhibition against SpNanA.

Test [6] has as its target N2-Kan17 (IAV neuraminidase) (Influenza A virus, UniProt A0A193ACB1). The test is described as above. The note with it: read-out: percentage inhibition against N2-Kan17. The test is classed as biochemical, influenza A virus A/Kansas/14/2017 (H3N2).
In test [7] the test system is influenza NAs tested (N1-Vic19, N1-BR18, N2-Dar21, N2-Kan17, NB-NB-Aus21, NB-Phu13). Description: Fluorescence-based inhibition assay, statements on the influenza NA panel. The test is classed as biochemical, influenza A and B viruses. The following applies: for inhibitory activity against influenza NAs, in words: Example 3 inhibition and IC50 assays; for inhibitory activities against the influenza NAs tested (span over six NAs): inhibitor 8.0 μM, substrate Neu5Acα2-3GalβMU 8.0 μM; for inhibition efficiency relative to 4NH2Neu5Ac2en (3), fold better: from IC50 values.

Test [8] deals with T2, PmST1 WT (sialidase activity of α2-3-sialyltransferase 1 in the presence of CMP) (Pasteurella multocida, UniProt Q15KI8).
T2 construct: made in house
Put plainly: biochemical. The following applies: read-out: percent inhibition against PmST1 WT.

Test [9] concerns the target NB-Phu13 (IBV neuraminidase) (Influenza B virus, UniProt A0A1S5RAG6). Description: Fluorescence-based inhibition assay (substrate Neu5Acα2-3GalβMU, β-galactosidase coupled). The class given is biochemical, influenza B virus B/Phuket/3073/2013. The following applies: read-out: percentage inhibition against NB-Phu13.
In test [10] the target is NB-Aus21 (IBV neuraminidase) (Influenza B virus, UniProt A0A1X9RX69). Put plainly: biochemical. Set-up: species or system influenza B virus B/Austria/1359417/2021. The note with it: inhibitor 8.0 μM.
Test [11] addresses T3, hNEU2 (human cytosolic sialidase) (Homo sapiens, UniProt Q9Y3R4).
T3 construct: made in house
Put plainly: Fluorescence-based inhibition assay (substrate Neu5Acα2-3GalβMU, β-galactosidase coupled). The class given is biochemical. The following applies: inhibitor 8.0 μM.

Test [12] addresses N1-BR18 (IAV neuraminidase) (Influenza A virus, UniProt A0A0X9QTS2). The description is as above. The test is classed as biochemical, influenza A virus A/Brisbane/02/2018 (H1N1).
Test [13] has as its system N1-Vic19 (IAV neuraminidase). The test is described as above. The test is classed as biochemical, influenza A virus A/Victoria/2570/2019 (H1N1). The following applies: inhibitor 8.0 μM; Example 3, Table 4.
In test [14] the test system is H1N1/BR18 virus. The following applies: virus in egg allantoic fluid, streptavidin plates or Dynabeads.
Test [15] concerns the target N1-BR18. The following applies: read-out: KD for the interaction of N1-BR18.
[16] abbreviates: high-concentration enzyme conditions (10-fold, Vc sialidase 4-fold), 1 hour.
Setting [17] is: high-concentration enzyme conditions, 14 hours.
Setting [18] is: substrate Neu5Acα2-3GalβMU 8.0 μM, Example 2, Table 2, read-out: Percentage inhibition against NB-Aus21 (IBV).
The mark [19] stands for this setting: Example 3, Table 4, read-out: percentage inhibition against NB-NB-Aus21.
[20] abbreviates: substrate Neu5Acα2-3GalβMU 8.0 μM, Example 2, Table 2, read-out: Percentage inhibition against hNEU2.
[21] abbreviates: Table 5, read-out: percent inhibition against hNEU2.
The mark [22] stands for this setting: read-out: Percentage inhibition against N1-BR18 (IAV), inhibitor 8.0 μM, substrate Neu5Acα2-3GalβMU 8.0 μM, Example 2, Table 2.
The mark [23] stands for this setting: read-out: percentage inhibition against N1-BR18, inhibitor 8.0 μM, Example 3, Table 4.

By inhibition is commonly meant how much of the control response was suppressed. Broadly, the Kd is the equilibrium constant for the complex coming apart.

Where two headings read alike, the source gives them in different places.

T3 sequence (Q9Y3R4 whole entry): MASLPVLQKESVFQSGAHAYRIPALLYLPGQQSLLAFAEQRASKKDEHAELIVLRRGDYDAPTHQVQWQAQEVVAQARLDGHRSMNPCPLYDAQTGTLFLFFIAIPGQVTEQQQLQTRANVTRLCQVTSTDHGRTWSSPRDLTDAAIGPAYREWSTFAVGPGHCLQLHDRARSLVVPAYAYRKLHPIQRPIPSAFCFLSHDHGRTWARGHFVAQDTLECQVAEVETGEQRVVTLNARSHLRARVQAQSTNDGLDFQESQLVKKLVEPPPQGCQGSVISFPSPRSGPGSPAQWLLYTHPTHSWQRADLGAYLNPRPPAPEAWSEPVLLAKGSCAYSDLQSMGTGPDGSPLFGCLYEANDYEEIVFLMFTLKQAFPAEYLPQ

For the compound “4NH2Neu5Acα2-3LacNAcβPorNH-PEG4-Biotin [Compound 9d]”, in test [1], the “binding of influenza NAs to immobilized sialoside (BLI), in words” value (shortened to “binding of influenza NAs”) is recorded as “significantly stronger binders than other sialosides”.

As to “4N3Neu5Acα2-3LacNAcβProNH-PEG4-Biotin [Compound 11d]”, the “binding of influenza NAs” value in [1] is “Weak binding of N1-Vic19, N2-Dar21, and the IBV NAs”. Moreover, in test [2], the “suitability as affinity ligand for immobilizing NAs (ELISA)” value (from here on “suitability as affinity ligand”) is “not suitable affinity ligands”.

As for `CC(=O)N[C@H]1[C@H]([C@H](O)[C@H](O)CO)O[C@@](OC[C@H]2O[C@@H](Oc3ccc([N+](=O)[O-])cc3)[C@H](O)[C@@H](O)[C@H]2O)(C(=O)O)C[C@@H]1NC(=N)N` [4-Guanidino-Neu5Acα2-6GalβpNP], the cleavage by sialidases result in test [3] (setting [16]) is listed as “very poor substrates for the influenza NAs tested”; in test [3] (setting [17]), “selectively by influenza virus NAs”. Moreover, the inhibition at 8 µM turned out to be 81.5% in test [4]; 6.4 ± 0.3% in test [5]; 78% in [6]; 31.7 ± 13.7% in [8]; 78.9% in test [9]; 69% in test [10] (setting [18]). The inhibition at 8 µM in test [10] (setting [19]) worked out at 66.6%; in test [11] (setting [20]) it was 0%; in test [11] (setting [21]), 0%; in test [12] (setting [22]), 90%; in test [12] (setting [23]), 92.8%. In test [7], the “inhibitory activity against influenza NAs, in words” value is recorded as “generally a weaker NA inhibitor than its α2-3-sialyl linked counterpart”. In addition, the “inhibitory activities against the influenza NAs tested (span over six NAs)” value in test [7] is 67-93%. The “percentage inhibition against N1-Vic19” value in test [13] is reported as 93.1%.

For the compound “LacNAcβProNH-PEG4-Biotin [LacNAcβProNH-PEG4-Biotin (20), reference compound]”, in test [14], the “detection and retention of H1N1/BR18 virions by immobilized ligand” value is listed as “did not retain influenza virions”. Further, the “suitability as affinity ligand” value in test [2] is “not suitable affinity ligands”.

As to “4NAcNeu5Acα2-3GalβProNH-PEG4-Biotin [Compound 12c]”, the “suitability as affinity ligand” value in [2] is reported as “not suitable affinity ligands”.

For the compound “GalβProNH-PEG4-Biotin [GalβProNH-PEG4-Biotin (19), reference compound]”, in [2], the “suitability as affinity ligand” value is given as “not suitable affinity ligands”.

As for “4NAcNeu5Acα2-3LacNAcβProNH-PEG4-Biotin [Compound 12d]”, the “binding of influenza NAs” value in test [1] was “weak binding of N1-Vic19 and N2-Dar21”. Further, the “suitability as affinity ligand” value in test [2] is recorded as “not suitable affinity ligands”.

As for `CC(=O)N[C@@H]1C(N)C[C@](OCC2O[C@@H](Oc3ccc([N+](=O)[O-])cc3)C(O)C(O)[C@H]2O)(C(=O)O)OC1[C@H](O)[C@H](O)CO` (stereo partly shown) [4NH2Neu5Acα2-6GalβpNP], the cleavage by sialidases entry in [3] (setting [16]) is “very poor substrates for the influenza NAs tested”; in test [3] (setting [17]), “weakly cleaved off by both SpNanA and some influenza virus NAs”. In addition, the inhibition at 8 µM was found to be 2.9% in [4]; 4.4 ± 9.6% in test [5]; 1.5% in test [6]; 35.7 ± 19.9% in test [8]; 9.8% in test [9]; 36% in test [10] (setting [18]). Moreover, the inhibition at 8 µM was found to be 13.5% in test [10] (setting [19]); 0% in [11] (setting [20]); 0% in test [11] (setting [21]); 15% in test [12] (setting [22]); 0.7% in test [12] (setting [23]). The “inhibitory activity against influenza NAs, in words” value in test [7] was “insignificant against the N1 or N2 NAs tested”. In addition, in [13], the “percentage inhibition against N1-Vic19” value stood at 0.4%.

Regarding “4N3Neu5Acα2-3GalβProNH-PEG4-Biotin [Compound 11c]”, the “suitability as affinity ligand” value in test [2] is listed as “not suitable affinity ligands”.

For the compound `CC(=O)N[C@@H]1C(NC(=N)N)C[C@](OC2C(O)[C@H](Oc3ccc([N+](=O)[O-])cc3)OC(CO)[C@@H]2O)(C(=O)O)OC1[C@H](O)[C@H](O)CO` (stereo partly shown) [4-Guanidino-Neu5Acα2-3GalβpNP], the cleavage by sialidases entry in [3] (setting [16]) is reported as “very poor substrates for the influenza NAs tested”; in [3] (setting [17]) it was “selectively by influenza virus NAs”. Moreover, the inhibition at 8 µM was determined as 97% in test [4]; 0.2 ± 0.7% in test [5]; 94.9% in test [6]; 26.1 ± 0.1% in [8]; 80.1% in test [9]; 86% in test [10] (setting [18]). The inhibition at 8 µM in test [10] (setting [19]) was 84.2%; in [11] (setting [20]), 0%; in test [11] (setting [21]), 0%; in test [12] (setting [23]), 97.9%. The “inhibition efficiency relative to 4NH2Neu5Ac2en (3), fold better” value in test [7] (against N1-Vic19 and N1-BR18) is listed as “about 4 fold”; in [7] (against N2-Kan17 and N2-Dar21), “about 10 fold”. In [7], the “inhibitory activities against the influenza NAs tested (span over six NAs)” value is 80-98%. In addition, the “percentage inhibition against N1-Vic19” value in test [13] amounted to 98.2%.

As for “4-Guanidino-Neu5Acα2-3LacNAcβPorNH-PEG4-Biotin [Compound 10d]”, the Kd in test [15] stood at 45.5 nM. Moreover, the “binding of influenza NAs” value in test [1] is recorded as “significantly stronger binders than other sialosides”. Moreover, the “detection and retention of H1N1/BR18 virions by immobilized ligand” value was “effective affinity ligand for detecting and purifying H1N1 virus” in test [14] (listed as 4-Guanidino-Neu5Acα2-3LacNAcβProNH-PEG4-Biotin (10d)); “efficient in retaining H1N1/BR18 virions” in test [14] (listed as 4-guanidino-Neu5Acα2-3LacNAcβProNH-PEG4-Biotin (10d)).
